From ChEMBL document CHEMBL1125669, “Synthesis of potential dual-acting radiation sensitizer antineoplastic agents: 2,2-dimethylphosphoraziridines containing 2-nitroimidazoles or other electron-affinic moieties” (1991)

Experiments:
Type in all cases: functional
[1] = system: Mus musculus; assay: In vivo antitumor activity against P-388 leukemia in CDF1 mice at 16 mg or 41 umol by ip administration expressed as average wt. change determined between day 0 and day 6 of experiment
[2] = system: Mus musculus; assay: effect of drug treatment in combination with gamma radiation on P-388 leukemia in mice at 250 mg/kg and 400R expressed as median survival time of drug treated mice/median survival time of control mice x100
[3] = system: Mus musculus; assay: In vivo antitumor activity against P-388 leukemia in CDF1 mice at 64 mg or 166 umol by ip administration expressed as average wt. change determined between day 0 and day 6 of experiment
[4] = system: Mus musculus; assay: In vivo antitumor activity against P-388 leukemia in CDF1 mice at 16 mg or 41 umol by ip administration expressed as median survival time of drug treated mice/median survival time of control mice x100
[5] = system: Mus musculus; assay: In vivo antitumor activity against P-388 leukemia in CDF1 mice at 64 mg or 166 umol by ip administration expressed as median survival time of drug treated mice/median survival time of control mice x100
[6] = system: Mus musculus; assay: effect of drug treatment in combination with gamma radiation on P-388 leukemia in mice at 250 mg/kg and 600R expressed as median survival time of drug treated mice/median survival time of control mice x100
[7] = system: Mus musculus; assay: In vivo antitumor activity against P-388 leukemia in CDF1 mice at 32 mg or 83 umol by ip administration expressed as median survival time of drug treated mice/median survival time of control mice x100
[8] = system: Mus musculus; assay: In vivo antitumor activity against P-388 leukemia in CDF1 mice at 128 mg or 331 umol by ip administration expressed as average wt. change determined between day 0 and day 6 of experiment
[9] = system: Mus musculus; assay: In vivo antitumor activity against P-388 leukemia in CDF1 mice at 256 mg or 663 umol by ip administration expressed as average wt. change determined between day 0 and day 6 of experiment
[10] = system: Mus musculus; assay: effect of drug treatment in combination with gamma radiation on P-388 leukemia in mice at 250 mg/kg and 400R expressed as average weight change
[11] = system: Mus musculus; assay: effect of drug treatment in combination with gamma radiation on P-388 leukemia in mice at 250 mg/kg and 600R expressed as average weight change
[12] = system: Mus musculus; assay: In vivo antitumor activity against P-388 leukemia in CDF1 mice at 128 mg or 331 umol by ip administration expressed as median survival time of drug treated mice/median survival time of control mice x100
[13] = system: Mus musculus; assay: In vivo antitumor activity against P-388 leukemia in CDF1 mice at 8 mg or 21 umol by ip administration expressed as median survival time of drug treated mice/median survival time of control mice x100
[14] = system: Mus musculus; assay: effect of drug treatment in combination with gamma radiation on P-388 leukemia in mice at 250 mg/kg and 200R expressed as average weight change
[15] = system: Mus musculus; assay: In vivo antitumor activity against P-388 leukemia in CDF1 mice at 256 mg or 663 umol by ip administration expressed as median survival time of drug treated mice/median survival time of control mice x100
[16] = system: Mus musculus; assay: In vivo antitumor activity against P-388 leukemia in CDF1 mice at 8 mg or 21 umol by ip administration expressed as average wt. change determined between day 0 and day 6 of experiment
[17] = system: Mus musculus; assay: effect of drug treatment in combination with gamma radiation on P-388 leukemia in mice at 250 mg/kg and 200R expressed as median survival time of drug treated mice/median survival time of control mice x100
[18] = system: Mus musculus; assay: In vivo antitumor activity against P-388 leukemia in CDF1 mice at 32 mg or 83 umol by ip administration expressed as average wt. change determined between day 0 and day 6 of experiment
[19] = system: Mus musculus; assay: In vivo antitumor activity against P-388 leukemia in CDF1 mice at 32 mg or 84 umol by ip administration expressed as median survival time of drug treated mice/median survival time of control mice x100
[20] = system: Mus musculus; assay: In vivo antitumor activity against P-388 leukemia in CDF1 mice at 64 mg or 167 umol by ip administration expressed as average wt. change determined between day 0 and day 6 of experiment
[21] = system: Mus musculus; assay: In vivo antitumor activity against P-388 leukemia in CDF1 mice at 16 mg or 42 umol by ip administration expressed as average wt. change determined between day 0 and day 6 of experiment
[22] = system: Mus musculus; assay: In vivo antitumor activity against P-388 leukemia in CDF1 mice at 256 mg or 670 umol by ip administration expressed as median survival time of drug treated mice/median survival time of control mice x100
[23] = system: Mus musculus; assay: In vivo antitumor activity against P-388 leukemia in CDF1 mice at 16 mg or 42 umol by ip administration expressed as median survival time of drug treated mice/median survival time of control mice x100
[24] = system: Mus musculus; assay: In vivo antitumor activity against P-388 leukemia in CDF1 mice at 128 mg or 335 umol by ip administration expressed as average wt. change determined between day 0 and day 6 of experiment
[25] = system: Mus musculus; assay: In vivo antitumor activity against P-388 leukemia in CDF1 mice at 32 mg or 84 umol by ip administration expressed as average wt. change determined between day 0 and day 6 of experiment
[26] = system: Mus musculus; assay: In vivo antitumor activity against P-388 leukemia in CDF1 mice at 256 mg or 670 umol by ip administration expressed as average wt. change determined between day 0 and day 6 of experiment
[27] = system: Mus musculus; assay: In vivo antitumor activity against P-388 leukemia in CDF1 mice at 64 mg or 167 umol by ip administration expressed as median survival time of drug treated mice/median survival time of control mice x100
[28] = system: Mus musculus; assay: In vivo antitumor activity against P-388 leukemia in CDF1 mice at 128 mg or 335 umol by ip administration expressed as median survival time of drug treated mice/median survival time of control mice x100
[29] = system: Mus musculus; assay: effect of drug treatment in combination with gamma radiation on P-388 leukemia in mice at 120 mg/kg and 200R expressed as median survival time of drug treated mice/median survival time of control mice x100
[30] = system: Mus musculus; assay: effect of drug treatment in combination with gamma radiation on P-388 leukemia in mice at 120 mg/kg and 0R expressed as median survival time of drug treated mice/median survival time of control mice x100
[31] = system: Mus musculus; assay: effect of drug treatment in combination with gamma radiation on P-388 leukemia in mice at 120 mg/kg and 600R expressed as average weight change
[32] = system: Mus musculus; assay: effect of drug treatment in combination with gamma radiation on P-388 leukemia in mice at 120 mg/kg and 200R expressed as average weight change
[33] = system: Mus musculus; assay: In vivo antitumor activity against P-388 leukemia in CDF1 mice at 200 mg or 861 umol by ip administration expressed as average wt. change determined between day 0 and day 6 of experiment
[34] = system: Mus musculus; assay: effect of drug treatment in combination with gamma radiation on P-388 leukemia in mice at 120 mg/kg and 400R expressed as median survival time of drug treated mice/median survival time of control mice x100
[35] = system: Mus musculus; assay: In vivo antitumor activity against P-388 leukemia in CDF1 mice at 100 mg or 430 umol by ip administration expressed as average wt. change determined between day 0 and day 6 of experiment
[36] = system: Mus musculus; assay: effect of drug treatment in combination with gamma radiation on P-388 leukemia in mice at 120 mg/kg and 400R expressed as average weight change
[37] = system: Mus musculus; assay: In vivo antitumor activity against P-388 leukemia in CDF1 mice at 200 mg or 861 umol by ip administration expressed as median survival time of drug treated mice/median survival time of control mice x100
[38] = system: Mus musculus; assay: effect of drug treatment in combination with gamma radiation on P-388 leukemia in mice at 120 mg/kg and 0R expressed as average weight change
[39] = system: Mus musculus; assay: effect of drug treatment in combination with gamma radiation on P-388 leukemia in mice at 120 mg/kg and 600R expressed as median survival time of drug treated mice/median survival time of control mice x100
[40] = system: Mus musculus; assay: In vivo antitumor activity against P-388 leukemia in CDF1 mice at 100 mg or 430 umol by ip administration expressed as median survival time of drug treated mice/median survival time of control mice x100

CC1(C)CN1P(=O)(NC(=O)OCCn1ccnc1[N+](=O)[O-])N1CC1(C)C (configuration not stated) was tested, and the Average weight change [1] was 0.6 g, the T/C [2] was 200% and the Average weight change [3] was -0.5 g. For the same compound, the T/C [4] was 125%, the T/C [5] was 144% and the T/C [6] was 230%. It also gave a T/C [7] of 125%, an Average weight change [8] of -1.1 g and an Average weight change [9] of -1 g. It also gave an Average weight change [10] of 1.17 g, an Average weight change [11] of 0.67 g and a T/C [12] of 156%. The T/C [13] was 113%, the Average weight change [14] was 1.92 g and the T/C [15] was 169%. For the same compound, the Average weight change [16] was 1.6 g, the T/C [17] was 190% and the Average weight change [18] was 0.8 g.

CC1(C)CN1P(=O)(NC(=O)OCc1ccccc1[N+](=O)[O-])N1CC1(C)C (configuration not stated) gave a T/C [19] of 118%, an Average weight change [20] of -1.1 g and an Average weight change [21] of 0 g. The T/C [22] was 153%, the T/C [13] was 106% and the T/C [23] was 106%. It also gave an Average weight change [24] of -1.1 g, an Average weight change [25] of -0.4 g and an Average weight change [26] of -1.5 g. The T/C [27] was 129%, the Average weight change [16] was 0.6 g and the T/C [28] was 141%.

Work on CCOP(=O)(N1CC1(C)C)N1CC1(C)C (configuration not stated) yielded a T/C [29] of 250%, a T/C [30] of 400% and an Average weight change [31] of -3.58 g. It also gave an Average weight change [32] of 0.33 g, an Average weight change [33] of -5.2 g and a T/C [34] of 160%. The Average weight change [35] was -2.6 g, the Average weight change [36] was -0.93 g and the T/C [37] was 433%. For the same compound, the Average weight change [38] was 0.83 g, the T/C [39] was 80% and the T/C [40] was 289%.
